Results: US20260152480A1, “POLYCYCLIC COMPOUND AND USE THEREOF” (TYK MEDICINES , INC., priority 2022, published 2026)
pIC50: −log10 of the molar value. Where two headings read alike, the source gives them in different places.

Key:
[1] = tested on: Human pleural mesothelioma cells NCI-H226; experiment: Proliferation inhibition assay of human pleural mesothelioma cells NCI-H226 (CCK8); format: cell-based; details: 72 h, 3 days incubation
Excerpt: Experimental Example 1 Cell Anti-Proliferation Test
Proliferation Inhibition Assay of Human Pleural Mesothelioma Cells NCI-H226 by YAP-TEAD Inhibitor Compounds
Experimental materials and equipment: Human pleural mesothelioma cells NCI-H226 were purchased from Nanjing Cobioer Biosciences CO., LTD. RPMI-1640 medium (Bio-Channel), DMSO (dimethyl sulfoxide), CCK8 (WST-8) cell analysis kit (Beyotime), 0.25% EDTA-Tripsin (trypsin solution), 1×PBS (phosphate buffer, PH7.2), 96-well plate (Corning), fetal bovine serum (FBS), 10,000 U/mL penicillin-G/streptomycin, high-speed cryo-centrifuge (EPPENDORF 5810R), enzyme-linked immunoassay (Tecan Spark).
• A) Tumor cells were cultured in RPMI-1640 (containing 10% FBS and 100 U/mL penicillin-G/streptomycin) at 37° C., 5% CO^2 and saturated humidity until 80-90% density. • B) Removed the culture medium from 10 cm Petri dishes; • C) Rinsed the cells once with 10 ml 1×PBS; • D) Added 4 ml 0.25% EDTA-Tripsin into 37° C., 5% CO^2 incubator for trypsin digestion for 5 minutes, transferred to 15 ml centrifuge tube, centrifuged at 200 g for 5 minutes, discarded the supernatant to get cell precipitate; • E) Resuspend with 4 ml DMEM medium, count and adjust to 10,000 cells/ml. • F) Added cell suspension to 96-well plate with 100 μL per well volume and incubate overnight at 37° C., 5% CO^2 incubator.
• A) Preparation of gradient dilution solution of tested compounds: the test compounds were configured into 1 mM reservoir solution. Then 1.5 μl of the reservoir solution was dissolved in 1.5 ml of DMSO-free culture solution, and then a 3-fold serial gradient dilution was performed with 0.1% DMSO culture solution for a total of 9 concentrations, and the concentrations of the compounds after dilution were as follows: • 333.33 nM, 111.11 nM, 37.03 nM, 12.35 nM, 4.15 nM, 1.37 nM, 0.46 nM, 0.15 nM • B) After thorough mixing, 100 μL of culture compound solution was taken separately to replace the culture solution in the cell culture plate, with 4 replicate wells for each concentration; • C) The cells were transferred to the incubator and incubated for 3 days.
• A) Removed the cell culture plate and added 10 μl of CCK-8 (WST-8) solution per well in the biosafety cabinet. • B) Placed the cell culture plate back into the incubator and continued incubation for 3 hours. • C) Determined the absorbance value by selecting 450 nm on a TECAN enzyme-linked immunoassay detector.
The cell viability (% Cell Viability) was calculated using the following formula.
[formula] • A (dosing): absorbance of wells with cells, CCK8 solution and drug solution • A (blank): absorbance of wells with medium and CCK8 solution but no cells • A (0 dosing): absorbance of wells with cells, CCK8 solution and no drug solution • Cell viability: Cell proliferation viability or cytotoxicity viability IC50 values were obtained by curve fitting with GraphPad Prism 8 software.

YAP-TEAD = experiment: Nano luciferase method to detect YAP-TEAD inhibitor activity (293T cells transfected with pGL3B-8×GTiiC-nLuc-CMV-fLuc); format: cell-based; details: Homo sapiens, HEK-293T, transfected 293T cells, 48 hours incubation, read-out: Nano Luciferas detection (IC50)
Excerpt: Experimental Example 2 Nano Luciferase Method to Detect YAP-TEAD Inhibitor Activity
(1) Experimental materials and equipment: 293T cells were purchased from Nanjing Cobioer Biosciences CO., LTD. DMEM medium (high sugar, phenol red free, Bio-Channel), DMSO (dimethyl sulfoxide), Lipo6000™ transfection reagent (Beyotime), pGL3B-8×GTiiC-nLuc-CMV-fLuc plasmid, 0.25% EDTA Tripsin (trypsin solution), 1×PBS (phosphate buffer, PH7.2), 96-well white cell culture plate (PerkinElmer), Fetal Bovine Serum (FBS), 10,000 U/mL penicillin-G/streptomycin, High-speed cryo-centrifuge (EPPENDORF 5810R), 37° C. CO^2 incubator, Vi-Cell® cell counter, Envision microplate reader (PerkinElmer).
Resuscitated 293T cells were inoculated into 10 cm petri dishes and placed in a 5% CO^2 incubator at a constant temperature of 37° C. To ensure transfection efficiency, cells in the logarithmic phase (cell density of about 50%-70%) should be used.
One day before transfection, cells in logarithmic phase were digested with Trypsin-EDTA, the reaction was terminated by adding medium, and the cell suspension was made by blowing and mixing with a pipette.
The cell concentration was determined using Vi-cell and diluted to a suspension of 5*10^5 cells per milliliter. Once the cell suspension was prepared, it was gently mixed and 10 ml of liquid was added to a 10 cm petri dish. […] The cells were incubated in a 5% CO^2 incubator at 37° C. for 1 day.
Take two clean and sterile centrifuge tubes, added 750 μL of opti-MEM Medium without antibiotics and serum respectively, then added […] of plasmid (pGL3B-8×GTiiC-nLuc-CMV-fLuc) to one of the tubes and gently blown with a pipette for mixing; the other tube was added with Lipo6000 transfection reagent and gently blown with a pipette for mixing. After standing at room temperature for 5 minutes, the culture medium containing DNA was gently added to the culture medium containing Lipo6000 transfection reagent, mixed by gently inverting the centrifuge tube, and stood at room temperature for 5 minutes.
The above mixture was added evenly dropwise to a 10-cm petri dish and replaced with fresh complete medium after 6 h of incubation.
After 1 day of transfection, Trypsin EDTA was used to digest the cells, medium was added to terminate the reaction, and a cell suspension was made by blowing and mixing with a pipette.
Cell concentration was determined using Vi-cell, and diluted to a suspension of 20,000 cells per milliliter.
After the cell suspension was prepared, it was gently mixed and 100 μL was added to each well in a 96-well plate so that the density of cells to be measured was 2000 per well.
The inoculated cell culture plates were incubated in an incubator, and the compounds in concentration gradients were added after about 24 hours.
The 10 mM compound reservoir solution was diluted to 50 μM with culture medium, and 50 μM compound solution was added sequentially to the third column of the deep-well plate, and 216 μL of culture medium containing 0.5% DMSO to the fourth to eleventh columns.
Gradient dilution: 100 μL of solution was pipetted from the third column and added to the fourth column, after mixing; another 100 μL of solution was pipetted from the fourth column and added to the fifth column, and the operation was repeated until the eleventh column.
Using a multichannel pipette, 25 μL of compound solution was pipetted from the deep-well plate and added to the 96-well culture plate, and each compound was repeated four times on the 96-well plate. A concentration gradient with a maximum concentration of 10,000 nM, 1:3.16, was eventually formed on the 96-well plate.
The 96-well plate was incubated in a 5% CO^2 incubator at a constant temperature of 37° C. for 48 hours, then removed and equilibrated at room temperature for 10 minutes.
100 μL of detection reagent was added to each well and placed on a horizontal shaker at low speed for 10 minutes to fully lyse the cells. […]

[2] = reference compounds of WO2009081259A1

Row | SMILES | pIC50 [1] | pIC50 (YAP-TEAD) | pIC50 [1, 2] | pIC50 (YAP-TEAD; [2])
1 | C=CC(=O)N1CC=C(c2cccnc2Nc2ccc(C)cc2)CC1 [Compound T12] | ≥ 7.00 | ≥ 7.00 | – | –
2 | C=CC(=O)N1CCC(c2ccccc2Nc2ccc(C(F)(F)F)cc2)CC1 [Compound T64] | ≥ 7.00 | ≥ 7.00 | – | –
3 | C=CC(=O)N1CCC(c2cc(-c3ccnn3C)cnc2Nc2ccc(C(F)(F)F)cc2)CC1 [Compound T60] | 5.30 to 6.00 | 6.00 to 7.00 | – | –
4 | C=CC(=O)N1CC(c2cccnc2Nc2ccc(C(F)(F)F)cc2)C1 [Compound T5] | 6.00 to 7.00 | 6.00 to 7.00 | – | –
5 | C=CC(=O)N1CCC(c2cc3ccccc3nc2Nc2ccc(C(F)(F)F)cc2)CC1 [Compound T65] | 6.00 to 7.00 | 6.00 to 7.00 | – | –
6 | C=CC(=O)N1CCC(c2cccnc2Oc2ccc(C(F)(F)F)cc2)C(F)(F)C1 (centres unmarked) [Compound T77] | ≥ 7.00 | ≥ 7.00 | – | –
7 | C=CC(=O)N1CC=C(c2cccnc2Nc2ccc(C(F)(F)F)cc2)CC1 [Compound T2] | ≥ 7.00 | ≥ 7.00 | – | –
8 | C=CC(=O)N1CCN(c2cccnc2Nc2ccc(C(F)(F)F)cc2)CC1 [Compound T36] | 6.00 to 7.00 | 6.00 to 7.00 | – | –
9 | C=CC(=O)N1CCC(c2cc(F)cnc2Nc2ccc(C(F)(F)F)cc2)CC1 [Compound T25] | ≥ 7.00 | ≥ 7.00 | – | –
10 | C=CC(=O)N1CC=C(c2cccnc2Nc2ccc(S(F)(F)(F)(F)F)cc2)C1 [Compound T9] | ≥ 7.00 | ≥ 7.00 | – | –
11 | C/C=C/C(=O)N1CCC(c2cccnc2Nc2ccc(C(F)(F)F)cc2)CC1 [Compound T53] | 5.30 to 6.00 | 6.00 to 7.00 | – | –
12 | Cc1cnc(Nc2ccc(C(F)(F)F)cc2)c(C2CCNCC2)c1 [Reference compound 1, reference compound] | – | – | < 5.30 | < 5.30
13 | C=CC(=O)N1CCC(c2c(F)ccnc2Nc2ccc(C(F)(F)F)cc2)CC1 [Compound T26] | ≥ 7.00 | ≥ 7.00 | – | –
14 | C#CC(=O)N1CCC(c2cccnc2Nc2ccc(C(F)(F)F)cc2)CC1 [Compound T49] | 5.30 to 6.00 | ≥ 7.00 | – | –
15 | C=CC(=O)N1CC2(C1)CN(c1nccnc1Nc1ccc(C(F)(F)F)cc1)C2 [Compound T57] | ≥ 7.00 | ≥ 7.00 | – | –
16 | C=CC(=O)N1CC=C(c2nccnc2Nc2ccc(C(F)(F)F)cc2)CC1 [Compound T17] | ≥ 7.00 | ≥ 7.00 | – | –
17 | C=CC(=O)N1CCC(c2ccc(C)nc2Nc2ccc(C(F)(F)F)cc2)CC1 [Compound T21] | ≥ 7.00 | ≥ 7.00 | – | –

Row | SMILES | pIC50 [1] | pIC50 (YAP-TEAD) | pIC50 [1, 2] | pIC50 (YAP-TEAD; [2])
18 | C=CC(=O)N1CCC(c2cccnc2Nc2ccc(C(F)(F)F)cc2)C1 (centres unmarked) [Compound T3] | 6.00 to 7.00 | 6.00 to 7.00 | – | –
19 | C=CC(=O)N1CCC(c2cccnc2Nc2ccc(S(F)(F)(F)(F)F)cc2)C1 (centres unmarked) [Compound T8] | ≥ 7.00 | ≥ 7.00 | – | –
20 | C=CC(=O)N1CCC(c2c(Cl)ccnc2Nc2ccc(C(F)(F)F)cc2)CC1 [Compound T29] | ≥ 7.00 | ≥ 7.00 | – | –
21 | C=CC(=O)N1CCC(c2cc(-c3cn[nH]c3)cnc2Nc2ccc(C(F)(F)F)cc2)CC1 [Compound T55] | 6.00 to 7.00 | 6.00 to 7.00 | – | –
22 | C=CC(=O)N1CCC(c2cc(-c3cccs3)cnc2Nc2ccc(C(F)(F)F)cc2)CC1 [Compound T99] | 5.30 to 6.00 | 6.00 to 7.00 | – | –
23 | C=CC(=O)N1CCC(c2cc(-c3ccsc3)cnc2Nc2ccc(C(F)(F)F)cc2)CC1 [Compound T98] | 5.30 to 6.00 | 6.00 to 7.00 | – | –
24 | C=CC(=O)N1C(C)CC(c2cccnc2Oc2ccc(C(F)(F)F)cc2)CC1C (centres unmarked) [Compound T80] | ≥ 7.00 | ≥ 7.00 | – | –
25 | C=CC(=O)N1CCC(c2ccnnc2Nc2ccc(C(F)(F)F)cc2)CC1 [Compound T42] | 6.00 to 7.00 | 6.00 to 7.00 | – | –
26 | C=CC(=O)N1CC=C(c2cccnc2Nc2ccc(C(F)(F)F)cc2)C1 [Compound T4] | ≥ 7.00 | ≥ 7.00 | – | –
27 | C=C(F)C(=O)N1CCC(c2cccnc2Nc2ccc(C(F)(F)F)cc2)CC1 [Compound T51] | 6.00 to 7.00 | 6.00 to 7.00 | – | –
28 | C=CC(=O)N1CCC(c2c(OC)ccnc2Nc2ccc(C(F)(F)F)cc2)CC1 [Compound T35] | 6.00 to 7.00 | 6.00 to 7.00 | – | –
29 | C=CC(=O)N1CCC(c2cccnc2N(C)c2ccc(C(F)(F)F)cc2)CC1 [Compound T63] | 6.00 to 7.00 | 6.00 to 7.00 | – | –
30 | C=CC(=O)N1CC(c2cccnc2Nc2ccc(C)cc2)C1 [Compound T15] | ≥ 7.00 | ≥ 7.00 | – | –
31 | C=CC(=O)N1CCC(c2ccc(OC)nc2Nc2ccc(C(F)(F)F)cc2)CC1 [Compound T33] | 6.00 to 7.00 | ≥ 7.00 | – | –
32 | C=CC(=O)N1CC=C(c2cccnc2Nc2ccc(S(F)(F)(F)(F)F)cc2)CC1 [Compound T7] | ≥ 7.00 | ≥ 7.00 | – | –
33 | C=CC(=O)N1CCC(c2cccnc2Nc2ccc(C)cc2)CC1 [Compound T11] | ≥ 7.00 | ≥ 7.00 | – | –
34 | CC/C=C/C(=O)N1CCC(c2cccnc2Nc2ccc(C(F)(F)F)cc2)CC1 [Compound T52] | 5.30 to 6.00 | 6.00 to 7.00 | – | –
